From publication PMC6155437 (Molecules : A Journal of Synthetic Chemistry and Natural …, 2017)

Experiments:
Type in all cases: in vitro ADME
Conditions in all cases: at 50 µM
[1] = target: T1, CYP2D6 (Homo sapiens, UniProt P10635); assay: CYP2D6 bufuralol 1′-hydroxylase inhibition in human liver microsomes
T1 construct: pooled human liver microsomes (0.2 mg/mL); tissue Corning Life Sciences; host or cells: pooled human liver microsomes (150 donors)
Description: (§1) After a 3-min pre-incubation at 37 °C, the reactions were initiated by addition of NADPH and incubation proceeded for 15 min at 37 °C in a shaking water bath. […] The incubation mixtures were centrifuged (13,000× g, 4 min, 4 °C). All assays were performed in triplicate and mean values were used in calculations.
(§2) Each reaction was initiated by adding the seven-CYP probe substrate cocktail.
(§3) The metabolites formed from CYP substrates were quantified simultaneously by a LC-MS/MS method described previously. The ESI source settings in positive-ion mode for metabolite ionization were: capillary voltage, 4200 V; vaporizer temperature, 350 °C; capillary temperature, 330 °C; sheath gas pressure, 35 psi; and auxiliary gas pressure, 15 psi. […] Analytical data were processed using Xcalibur software (version 2.1, Thermo Scientific).
(§4) The apparent kinetic parameters for inhibitory potential (Ki and kinact values) and inhibition mode were estimated from the fitted curves using the Enzyme Kinetics program (ver. 1.1; Systat Software Inc., San Jose, CA, USA).

[2] = target: T2, CYP2A6 (Homo sapiens, UniProt P11509); assay: CYP2A6 coumarin 7-hydroxylase inhibition in pooled human liver microsomes (substrate cocktail, LC-MS/MS)
T2 construct: pooled human liver microsomes (0.2 mg/mL); tissue Corning Life Sciences; host or cells: pooled human liver microsomes (150 donors)
T2 sequence (P11509 1-494): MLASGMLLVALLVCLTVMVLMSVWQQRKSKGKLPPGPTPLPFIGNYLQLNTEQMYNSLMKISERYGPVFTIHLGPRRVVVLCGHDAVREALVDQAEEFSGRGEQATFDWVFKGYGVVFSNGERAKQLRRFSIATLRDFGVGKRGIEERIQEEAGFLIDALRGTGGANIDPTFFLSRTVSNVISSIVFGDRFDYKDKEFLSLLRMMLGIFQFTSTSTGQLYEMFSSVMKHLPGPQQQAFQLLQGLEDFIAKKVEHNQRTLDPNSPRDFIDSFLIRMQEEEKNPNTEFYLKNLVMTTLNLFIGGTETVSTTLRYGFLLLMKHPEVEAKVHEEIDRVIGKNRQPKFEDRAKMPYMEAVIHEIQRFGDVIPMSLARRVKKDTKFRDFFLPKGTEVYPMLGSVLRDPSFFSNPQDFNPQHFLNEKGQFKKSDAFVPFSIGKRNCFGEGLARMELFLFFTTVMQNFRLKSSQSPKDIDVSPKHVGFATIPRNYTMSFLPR
Description: as §1, §2, §3, §4

[3] = target: T3, UGT1A6 (Homo sapiens, UniProt P19224); assay: UGT1A6 N-acetylserotonin glucuronidation inhibition in human liver microsomes
T3 construct: pooled human liver microsomes (0.2 mg/mL), 5 mM UDPGA; tissue Corning Life Sciences; host or cells: pooled human liver microsomes (150 donors)
T3 sequence (P19224 27-532): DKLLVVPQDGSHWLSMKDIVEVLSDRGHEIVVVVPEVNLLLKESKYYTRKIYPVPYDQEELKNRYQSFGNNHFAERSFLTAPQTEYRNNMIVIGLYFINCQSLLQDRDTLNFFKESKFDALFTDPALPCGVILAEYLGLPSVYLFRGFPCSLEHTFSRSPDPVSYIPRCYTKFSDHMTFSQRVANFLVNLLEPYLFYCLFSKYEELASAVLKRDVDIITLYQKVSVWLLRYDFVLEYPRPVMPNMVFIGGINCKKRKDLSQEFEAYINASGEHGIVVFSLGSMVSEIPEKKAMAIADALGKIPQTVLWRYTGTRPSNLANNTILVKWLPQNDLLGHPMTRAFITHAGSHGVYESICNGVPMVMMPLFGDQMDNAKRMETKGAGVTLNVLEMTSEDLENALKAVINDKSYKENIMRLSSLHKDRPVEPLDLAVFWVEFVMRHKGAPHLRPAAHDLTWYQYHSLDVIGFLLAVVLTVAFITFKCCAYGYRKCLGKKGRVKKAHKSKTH
Description: After 3 min of pre-incubation at 37 °C, the reactions were initiated by addition of UDPGA; incubation continued for 60 min at 37 °C in a shaking water bath. The reaction was stopped by placing the tubes on ice and adding 50 µL ice-cold acetonitrile containing internal standards (propofol glucuronide for chenodeoxycholic acid 24-acyl-β-glucuronide and mycophenolic acid glucuronide, and meloxicam for SN-38 glucuronide, trifluoperazine glucuronide, N-acetylserotonin β-D-glucuronide, and naloxone 3-β-D-glucuronide). The incubation mixtures were centrifuged (13,000× g, 4 min, 4 °C). All assays were performed in triplicate and average values were used in calculations.
The metabolites formed from the six UGT cocktail substrates were measured simultaneously using the LC-MS/MS method. The ESI source settings in both positive- and negative-ion modes for metabolite ionization were: capillary voltage, 4200 V; vaporizer temperature, 350 °C; capillary temperature, 330 °C; sheath gas pressure, 35 psi; and auxiliary gas pressure, 15 psi. […] Data were processed using Xcalibur software.
as §4

[4] = target: T4, CYP1A2 (Homo sapiens, UniProt P05177); assay: CYP1A2 phenacetin O-deethylase inhibition in pooled human liver microsomes (substrate cocktail, LC-MS/MS)
T4 construct: pooled human liver microsomes (0.2 mg/mL); tissue Corning Life Sciences; host or cells: pooled human liver microsomes (150 donors)
T4 sequence (P05177 1-516): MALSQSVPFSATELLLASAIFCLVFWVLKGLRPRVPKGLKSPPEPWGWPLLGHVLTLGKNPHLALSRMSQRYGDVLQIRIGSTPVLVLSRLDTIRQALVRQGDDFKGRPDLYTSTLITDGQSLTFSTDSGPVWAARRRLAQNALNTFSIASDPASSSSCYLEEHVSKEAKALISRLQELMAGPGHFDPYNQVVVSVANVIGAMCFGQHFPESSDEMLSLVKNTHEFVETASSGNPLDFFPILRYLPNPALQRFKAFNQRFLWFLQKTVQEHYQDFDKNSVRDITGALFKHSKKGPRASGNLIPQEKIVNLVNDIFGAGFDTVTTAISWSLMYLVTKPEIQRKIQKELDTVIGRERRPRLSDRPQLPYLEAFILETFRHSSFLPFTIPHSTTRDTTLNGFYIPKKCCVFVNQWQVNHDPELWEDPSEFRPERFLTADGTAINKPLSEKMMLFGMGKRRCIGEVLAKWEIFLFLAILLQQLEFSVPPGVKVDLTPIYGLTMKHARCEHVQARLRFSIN
Description: as §1, §2, §3, §4

T1 sequence (P10635 whole entry): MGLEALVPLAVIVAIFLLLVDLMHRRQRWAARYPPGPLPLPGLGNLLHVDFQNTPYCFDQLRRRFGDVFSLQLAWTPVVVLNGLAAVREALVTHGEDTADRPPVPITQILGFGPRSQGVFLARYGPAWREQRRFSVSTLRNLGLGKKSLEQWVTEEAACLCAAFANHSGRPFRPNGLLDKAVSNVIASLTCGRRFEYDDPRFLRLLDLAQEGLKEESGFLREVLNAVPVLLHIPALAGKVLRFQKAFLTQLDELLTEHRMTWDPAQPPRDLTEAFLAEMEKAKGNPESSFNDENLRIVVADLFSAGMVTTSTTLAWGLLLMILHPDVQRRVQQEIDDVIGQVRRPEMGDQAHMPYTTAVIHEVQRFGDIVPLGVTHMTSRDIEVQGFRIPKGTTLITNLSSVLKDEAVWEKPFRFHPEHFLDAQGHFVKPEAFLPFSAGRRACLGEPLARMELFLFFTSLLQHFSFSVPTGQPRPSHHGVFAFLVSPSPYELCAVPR

O=C(c1cccc2ccccc12)c1cn(CCCCCF)c2ccccc12 [AM-2201, 1-(5-fluoropentyl-1H-indol-3-yl)-(naphthalene-1-yl)methanone]
negligibly inhibited: inhibition of CYP2D6-mediated bufuralol 1′-hydroxylation [1] | inhibition of CYP2A6-mediated coumarin 7-hydroxylation [2] | inhibition of UGT1A6-catalyzed N-acetylserotonin glucuronidation [3] | inhibition of CYP1A2-mediated phenacetin O-deethylation [4]
